Earlier results as cited in patent US20020022622A1, “Thiazole, imidazole and oxazole compounds and treatments of disorders associated with protein aging” (priority 2000, published 2002).

Assays:
[1] = test system: aortic wall protein cross-linking; conditions: diabetic rats
red blood cells = conditions: in vivo
[2] = test system: immunoglobulin trapping in the kidney; conditions: in vivo
[3] = test system: glomerular basement membrane thickness; conditions: streptozotocin-diabetic rat model

Q: Which “aortic wall protein cross-linking” value [1] does the source give for `N=C(N)NN` [aminoguanidine] here?
A: diminishes

Q: And the “diabetes-induced changes in the deformability of red blood cells” value (red blood cells)?
A: prevent

Q: What about the “immunoglobulin trapping in the kidney” value [2] of the same compound?
A: reduction

Q: And the “increased glomerular basement membrane thickness” value [3]?
A: prevented
